Source: publication PMC10675445, “Enolase Inhibitors as Early Lead Therapeutics against Trypanosoma brucei” (Pathogens, 2023)
Like-named read-outs stand apart in the source and are kept apart here.

Experiments:
T. brucei ENO (TbENO) = T. brucei ENO (TbENO) (Trypanosoma brucei brucei, UniProt Q38BV6); assay: Recombinant TbENO coupled enzyme assay; format: biochemical
Procedure: Recombinant ENO and ENO Assays—Recombinant TbENO was expressed and purified using an approach modified from the purification of another trypanosome glycolytic enzyme. Briefly, the full-length open reading frame was cloned from Trypanosoma brucei brucei (a 427 strain) genomic DNA into the bacterial expression vector pQE-30 (Qiagen, MD, USA). This plasmid was transformed into M15pREP cells and protein expression induced with 0.25 mM isopropyl-b-d-1-thiogalactopyranoside (IPTG) overnight at 37 °C. Protein was purified on Ni-NTA agarose (Qiagen) as described.
ENO assays were performed in triplicate using a coupled reaction to measure enzyme activity. In short, enzyme (~50 nM) in assay buffer (100 mM HEPES, pH 8.0, 3.3 mM MgSO4, 120 mM KCl, 1.75 mM ADP, 1 U of pyruvate kinase/lactate dehydrogenase, and 0.4 mM NADH) was added to black 96-well plates. Reactions were initiated by the addition of substrate (3.75 mM 2-PG) and the rate of reduction in fluorescence emission at A460 was measured after excitation at A360 to monitor NAD^+ production. Assays were scored on a Biotek Synergy H1 microplate reader and kinetic analyses were performed with Prism 9.0 (GraphPad Software, San Diego, CA, USA) using the Michaelis–Menten model. To assess the impact of different pH on enzyme activity, the HEPES […] in the standard buffer was replaced with Good’s buffers 2-morpholinoethanesulfonic acid (MES, pH 6.5), HEPES (pH 7.0 to pH 8.5), or sodium borate (pH 9.0). For assays involving inhibitors, compounds (in DMSO) were incubated with the enzyme in assay buffer (pH 8.0) for 15 min prior to initiation of the reaction. All assays were performed in triplicate with vehicle control (DMSO) included.

HsENO2 = system: HsENO2; parameters: method as in PMID 33230295; conditions: cited from earlier work; for IC50: included for comparative purposes, source not given
T. brucei BSF parasites = assay: BSF viability assay (CellTiter Blue); format: cell-based, Trypanosoma brucei brucei
Procedure: (§1) Trypanosome growth, viability assays, and Western blotting—T. brucei brucei 90-13 BSF parasites were cultured in HMI-9 medium supplemented with 10% heat-inactivated FBS and 10% Serum Plus (Sigma-Aldrich, St. Louis, MO, USA) at 37 °C in 5% CO2, while T. brucei brucei PF 29-13 were cultured in SDM-79 supplemented with 10% heat-inactivated FBS [16]. For BSF viability assays, parasites (1 × 10^5/mL) were seeded into 384-well black polystyrene plates in the presence of a compound or equivalently diluted carrier. CellTiter Blue reagent (Promega, Madison, WI, USA) was added after two days of culture, the plates incubated an additional 1 h, and fluorescence emission at A585 measured after excitation at A546. For PF viability assays, 1 × 10^6 parasites in standard medium, or 5 × 10^6 parasites in glucose-free medium, were introduced into black 96-well plates in standard culture medium in the presence of a compound or carrier, with CellTiter Blue reagent added after 48 h of culture. Plates were incubated for 1 h and fluorescence emission scored as described for BSF. Fluorescence values were used to calculate percent cell growth inhibition (based on controls) for each concentration of compound tested. Averages of the triplicates were calculated and fit to dose-response curves for the determination of EC50 values, using Prism 9.0 (GraphPad Software, San Diego, CA, USA).

[1] = parameters: method as in PMID 33230295; conditions: mammalian animal models, including non-human primates; cited from earlier work
ENO1-deficient tumors = system: ENO1-deficient tumors; parameters: method as in PMID 33230295; conditions: rodent model; cited from earlier work
PF parasites (PF 29-13) = assay: Imaging of PF cellular and glycosomal morphology; format: cell-based, Trypanosoma brucei; conditions: 6 µM, 2.5 h
From the text: (§2) The following supporting information can be downloaded at: https://www.mdpi.com/article/10.3390/pathogens12111290/s1, Figure S1: Multiple sequence alignment of TbENO, HsENO2, and NfENO. Amino acid sequences of TbENO (Tb927.10.2890), HsENO2 (ENOG, P09104), and NfENO (NfTY_054390) were aligned using Clustal Omega (EMBL-EBI). Similar amino acids are indicated with (:) and absolute conservation of residues by (*). Figure S2: BSF morphology rapidly changes upon POMHEX treatment. For imaging, BSF (427 strain parasites) parasites bearing the transgene pXS6 AldoPTSeYFP (left) or PF pXS2 AldoPTSeYFP (PF 29-13) (right) for constitutive glycosomal expression of eYFP were cultured for 2.5 hr in DMSO vehicle or POMHEX (at 6 µM, a concentration equivalent to 10-fold the EC50 value). Cells were then washed, fixed (4% paraformaldehyde), and imaged on a on Leica 8 DMi8 microscope. Scale bar = 10 µm. Figure S3: The levels of the glycosome-resident protein aldolase change in response to POMHEX treatment. […] Western blots were visualized on a Analytik Jena UVP ChemStudio imager with Visual works imaging software and bands were quantitated using ImageJ. Percent change in aldolase amount was scored after normalization to loading by quantification of a prominent Coomassie-stained band (likely VSG). […] Cell viability was scored by propidium iodide exclusion, followed by analysis of 10,000 cells in the PC5.5 channel.

T. brucei aldolase = assay: Aldolase western blot of BSF lysates; format: cell-based, Trypanosoma brucei; conditions: POMHEX 6 µM, 2.5 h
From the text: as §2

T. brucei PF parasites = assay: PF viability assay (CellTiter Blue); format: cell-based; conditions: Trypanosoma brucei, 48 h
Procedure: as §1

BSF parasites [2] = assay: Trypanosome ROS assay (flow cytometry); format: cell-based, Trypanosoma brucei; conditions: 30 min, POMHEX 50 or 100 µM, H2O2 125 µM
Procedure: BSF parasites (5 × 10^6 cells) were pelleted (800 × g, 10 min) then resuspended in PBS supplemented with 0.1% glucose (PBSg). Samples were treated with either ROS stain (Total Reactive Oxygen Species (ROS) Assay Kit 520 nm, Invitrogen) or DMSO and then incubated at 37 °C in 5% CO2 for 60 min. Samples were then treated with 125 μM H2O2, 50 μM POMHEX, 100 μM POMHEX, or equal volume DMSO, incubated for 30 min, and analyzed on a CytoFLEX flow cytometer (Beckman Coulter). Events (10,000) were recorded and analyzed using FCSexpress software. Median fluorescence intensity (MFI) was calculated, and Welch’s t-tests were performed (ns: not statistically significant, * p < 0.05, ** p < 0.01, *** p < 0.001). Each experiment was performed with biological triplicates in technical triplicates.

[3] = system: BSF parasites (BSF pXS6-eYFP-PTS1); assay: Imaging of BSF cell morphology; format: cell-based, Trypanosoma brucei; conditions: 6 µM, 2.5 h
From the text: as §2

BSF parasites [4] = assay: Propidium iodide exclusion viability (flow cytometry); format: cell-based, Trypanosoma brucei; conditions: 30 min
Procedure: To monitor apoptotic-like responses, 5 × 10^6 parasites were collected, resuspended in fresh media containing 125 μM H2O2, 5 μM POMHEX, 50 μM POMHEX, 100 μM POMHEX, or equal volume of DMSO, and incubated at 37 °C in 5% CO2 for 30 min. Cells were washed once in PBS, resuspended in binding buffer (10 mM HEPES/NaOH, pH 7.4, 140 mM NaCl, 2.5 mM CaCl2) with propidium iodide (Enzo Life Sciences) and incubated for 15 min, followed by cytometry. Each experiment was performed with technical triplicates of biological triplicates. Median fluorescence intensity (MFI) was calculated, and Welch’s t-tests were performed (ns: not statistically significant, * p < 0.05, ** p < 0.01, *** p < 0.001).

[5] = recombinant TbENO ~50 nM, pH 8.0, 15 min preincubation, 3.75 mM 2-PG, read-out: TbENO IC50
[6] = Trypanosoma brucei, 48 h, BSF, two days of culture, read-out: T. brucei BSF EC50
[7] = Trypanosoma brucei, 48 h, read-out: T. brucei BSF EC50, BSF, two days of culture

T. brucei ENO (TbENO), sequence (Q38BV6 entry or part of it): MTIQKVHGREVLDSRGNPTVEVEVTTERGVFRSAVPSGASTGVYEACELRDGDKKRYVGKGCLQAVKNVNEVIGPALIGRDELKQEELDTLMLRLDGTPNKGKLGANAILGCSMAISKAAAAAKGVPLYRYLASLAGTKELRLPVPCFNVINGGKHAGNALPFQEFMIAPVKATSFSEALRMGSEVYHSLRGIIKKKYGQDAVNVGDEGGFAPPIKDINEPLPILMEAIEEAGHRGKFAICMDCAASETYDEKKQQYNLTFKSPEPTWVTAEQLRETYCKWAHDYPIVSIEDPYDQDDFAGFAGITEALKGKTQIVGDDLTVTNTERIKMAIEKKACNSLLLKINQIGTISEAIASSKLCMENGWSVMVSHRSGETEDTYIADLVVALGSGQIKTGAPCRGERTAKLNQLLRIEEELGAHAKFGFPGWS

| IC50 (T. brucei ENO (TbENO); [5]) | EC50 (T. brucei BSF parasites; [6]) | Structure (SMILES) | IC50 (HsENO2) | IC50 (T. brucei ENO (TbENO)) | EC50 (T. brucei BSF parasites; [7]) | other results |
| --- | --- | --- | --- | --- | --- | --- |
| > 10 µM | > 10 µM | O=C1C(P(=O)(O)O)CCCCN1OCc1ccccc1 (stereo not drawn) [Benzyl-HEPTA] | > 10 µM | – | – | – |
| > 10 µM | > 10 µM | O=C1C(P(=O)(O)O)CCN1OCc1ccccc1 (stereo not drawn) [Benzyl-deoxy-SF2312] | > 10 µM | – | – | activity against TbENO at 10 µM (T. brucei ENO (TbENO); at 10 µM): not active |
| > 10 µM | > 10 µM | O=C1C(P(=O)(O)O)CCCN1OCc1ccccc1 (stereo not drawn) [BenzylHEX] | > 10 µM | – | – | activity against ENO2 (in words) (HsENO2): not active |
| – | – | O=C1C(P(=O)(O)O)CCN1O (stereo not drawn) [Deoxy-SF2312, (1-hydroxy-2-oxopyrrolidin-3-yl) phosphonic acid] | 0.1 ± 0.04 µM | 0.6 ± 0.23 µM | > 10 µM | – |
| – | – | O=C1C(P(=O)(O)O)CCCCN1O (stereo not drawn) [HEPTA, (1-hydroxy-2-oxoazepan-3-yl) phosphonic acid] | 5.8 ± 0.88 µM | > 10 µM | > 10 µM | activity against TbENO (in words) (T. brucei ENO (TbENO)): not active |
| – | – | O=C1C(P(=O)(O)O)CCCN1O (stereo not drawn) [HEX, (1-hydroxy-2-oxopiperidin-3-yl) phosphonic acid] | 0.36 ± 0.04 µM | 2.1 ± 1.1 µM | 10 ± 1 µM | tolerability [1]: extremely well-tolerated; efficacy against ENO1-deficient tumors (ENO1-deficient tumors): curative; EC50 (T. brucei BSF parasites; Trypanosoma brucei, read-out: T. brucei BSF EC50, HEX with formaldehyde, with 2 molar equivalent formaldehyde): 10 ± 1.4 µM; EC50 (T. brucei BSF parasites; read-out: T. brucei BSF EC50, BSF, two days of culture): > 10 µM |
| – | – | CC(C)(C)C(=O)OCOP(=O)(OCOC(=O)C(C)(C)C)C1CC(O)N(O)C1=O (stereo not drawn) [POMSF] | – | – | – | EC50 (T. brucei BSF parasites; BSF, two days of culture, read-out: T. brucei BSF EC50): 0.45 ± 0.1 µM |
| – | – | OO [hydrogen peroxide, reference compound] | – | – | – | ROS levels compared to untreated parasites (BSF parasites [2]): increase in reactive species |

| Structure (SMILES) | IC50 (T. brucei ENO (TbENO); [5]) | EC50 (T. brucei BSF parasites; [6]) | IC50 (HsENO2) | IC50 (T. brucei ENO (TbENO)) | EC50 (T. brucei BSF parasites; [7]) | other results |
| --- | --- | --- | --- | --- | --- | --- |
| CC(C)(C)C(=O)OCOP(=O)(OCOC(=O)C(C)(C)C)C1CCCN(O)C1=O (stereo not drawn) [POMHEX] | 2.8 ± 0.64 µM | 0.61 ± 0.08 µM | > 10 µM | – | – | PF cellular and glycosomal morphology (PF parasites (PF 29-13)): remained largely unchanged; decrease of aldolase levels vs vehicle-treated cells (T. brucei aldolase): 28%; range of aldolase reduction in three other replicates (T. brucei aldolase): 28-55%; EC50 (T. brucei PF parasites; PF parasites cultured in glucose-free medium, read-out: PF EC50, glucose-free medium): 5 ± 0.14 µM; EC50 (T. brucei PF parasites; PF parasites cultured in standard (5 mM) glucose, read-out: PF EC50, standard glucose): 0.81 ± 0.07 µM; ROS levels compared to untreated parasites (BSF parasites [2]): significant reduction in ROS levels; BSF cell morphology [3]: rapid change to overall cell shape; cell death by PI exclusion, 50 µM (BSF parasites [4]; 50 µM): did not lead to increased cell death; cell death by PI exclusion, higher concentration (BSF parasites [4]; 100 µM): increased cell death |
